According to US7745465B2, “Method of enhancing cellular production of molecular chaperone, hydroxylamine derivatives useful for enhancing the chaperone production and the preparation thereof” (CytRx Corporation, priority 1995, dated 2010):

Assays:
hsp72 [1] = assay: hsp72 content of K562 tumor cells by flow-cytometry; type: cell-based, human; conditions: for hsp72 expression compared to heat shock alone: 5×10^−5 M during 42° C. for 2 hours, 16 hrs recovery, maleate
Text: Human K562 cells, a myeloid tumor cell line derived from a patient with chronic myelogenous leukemia in blast phase (ATCC, CCL243) was used (Lozzio, B C and Lozzio, B B Blood 45:321, 1975).

GRP-94 = assay: Level of GRP-94 in STZ diabetic rat liver (Western blot); type: in vivo; conditions: for relative amount of GRP-94: rats diabetic for 4 weeks
Hsp72 [2] = assay: Heat stress induced hsp72 expression in rat testicular explant; type: cell-based; conditions: 10^−5 M, 15 min. before 43° C. 30 min.
Description: Testis of CFY rats weighing of 200 g were removed in sterile conditions and the released testicular tubuli were suspended in 10% fetal bovine serum containing MEM culture medium in that way that five ml suspension contained 50-100 mg tissue. The explants were incubated in 5% CO2 containing humidified air at 37° C. for one hour, then the cultures were treated with 10^−5 M concentration of the tested compounds. After a further incubation for 15 min. at 37° C., explants were exposed to heat shock at 43° C. for 30 min. The amount of the induced hsp72 was measured after a further 6 hours incubation at 37° C.

HSP72 [3] = assay: Heat stress induced HSP72 production in 3T3 cells; type: cell-based, mouse; conditions: 10^−5 M
Method in brief: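 Mouse 3T3 fibroblasts in MEM monolayer were heat-stressed 30 min at 43° C, with test compounds at 10^−5 M given 15 min before or 100 min after stress. HSP72 detected by immunoblot with SPA 810 primary and HRP secondary antibodies, quantified by densitometry.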

Hsp72 [4] = assay: hsp72 level of skin biopsy samples of STZ-diabetic rats (Western blot); type: in vivo, rat; conditions: 4% containing cream, topical
Description: (ii) Streptozotocin-induced diabetic (STZ) rats with partial-to full thickness thermal wounds created on bilateral thoracic depilated skin by electroheating probe (3 mm of diameter; 60° C.; for 30, 60 and 90 sec.), treated by topical application of 1%, 2% or 4% N-[2-hydroxy-3-(1-piperidinyl)propoxy]-3-piridinecarboximidoyl chloride maleate containing cream or vehicle were used to determine the wound healing in form of self-control, side to side comparison. Wound closure was recorded photographically and using the digital epiluminescence microscopic technique. Wound areas were measured by planimetry 48 h and 21 days after heat injury. Level of hsp72 of skin biopsy samples was determined using Western blot analysis.

[5] = test system: isolated working rat hearts; assay: Isolated working rat hearts, 10-min. coronary occlusion and 3-min. reperfusion; conditions: for cardioprotection after pretreatment: 20 mg/kg
Description: After a 10-min. aerobic working perfusion, hearts (n=10 in each group) were subjected to a 10-min. coronary occlusion followed by a 3-min. reperfusion in the presence of 0.05, 0.5, 5.0, 20.0, and 50 mg/L N-[2-hydroxy-3-(1-piperidinyl)propoxy]-3-pyridine carboximidoyl chloride maleate, respectively.
After excision of the hearts, they were subjected to the coronary occlusion protocol detailed above while perfused in presence/absence of 20 mg/l N-[2-hydroxy-3-(1-piperidinyl)propoxy]-3-piridinecarboximidoyl chloride maleate.

For `O=C(O)/C=C\C(=O)O.OC(CON=C(Cl)c1cccnc1)CN1CCCCC1` (centres unmarked) [N-[2-hydroxy-3-(1-piperidinyl)-propoxy]3-pyridinecarboximidoyl chloride maleate], which “hsp72 expression compared to heat shock alone” value (hsp72 [1]; listed as N-[2-hydroxy-3-(1-piperidinyl)propoxy]-3-piridinecarboximidoyl chloride maleate) is on record?
The value was “enhanced level of hsp72”.

What about the “hsp72 expression compared to heat shock alone” value (hsp72 [1]; listed as N-[2-hydroxy-3-(1-piperidinyl)propoxy]-3-piridinecarboxymidoyl chloride maleate) of the same molecule?
Its value is “significant increase of hsp72 expression”.

And the hsp72 levels (hsp72 [1]; compound alone, no heat shock)?
The hsp72 levels was “did not increase hsp72 levels”.

And the “decrease of relative GRP-94 content” value (GRP-94; 1 week and 2-weeks diabetic animals, 20 mg/kg/day p.o.)?
The value was “completely be reverted”.

And the “levels of GRP-94 compared to the control state” value (GRP-94; in combination with insulin, 1 week and 2-weeks samples)?
The value was “almost doubled”.

And the “relative amount of GRP-94” value (GRP-94; compound alone)?
Its value is “no significant alteration”.

What about the “relative amount of GRP-94” value (GRP-94; insulinized and treated with the compound) of the same molecule?
Its value is “recovery of GRP-94 to the control level”.

What about the “Level of hsp72 relative to the stress exposed control” value (Hsp72 [2]) of the same molecule?
Its value is “+ + +”.

What about the “HSP72 level relative to the stress exposed control” value (HSP72 [3]; treatment 15 min. before 30 min. 43° C. heat stress) of the same molecule?
Its value is “+++ (>100%)”.

And the “HSP72 level relative to the stress exposed control” value (HSP72 [3]; treatment 100 min. after 30 min. 43° C. heat stress)?
Its value is 0 (0 indicates that the treatment altered by ±20% the stress induced hsp72 level in the cells).

And the “hsp72 level in skin biopsy samples compared to vehicle control” value (Hsp72 [4])?
Its value is “elevated the hsp72 level”.

What about the cardioprotection after pretreatment ([5]; five hours before isolation of the hearts) of the same molecule?
Its cardioprotection after pretreatment is “not observable”.

What about the cardioprotection after pretreatment ([5]; one hour before isolation of the hearts) of the same molecule?
Its cardioprotection after pretreatment is “still afforded cardioprotection”.

What about the “ischemia-induced deterioration of cardiac function” value ([5]; 0.05-50 mg/L, bell-shaped, 20 mg/L most pronounced) of the same molecule?
Its value is “alleviated ischemia-induced deterioration of cardiac function”.

What about the “heart rate before ischemia” value ([5]; 50 mg/L) of the same molecule?
The value was “significant bradycardia”.

What about the “coronary flow (CF)” value ([5]; before ischemia, bell-shaped concentration-response) of the same molecule?
Its value is “increased coronary flow (CF)”.

And the reperfusion-induced ventricular fibrillation ([5]; higher concentrations)?
Its reperfusion-induced ventricular fibrillation is “dose-dependent antiarrhythmic effect”.
